A word on the Kd: it is the concentration at which binding is half-saturated. High values mean weaker binding, low ones tighter binding.

Positions count from the first letter of the chain named.

For assay [1], the target named is T1, aqMutL NTD (Aquifex aeolicus, UniProt O67518, K79A).
T1 construct: gene mutL; recombinant from E. coli
T1 sequence (O67518 1-319 K79A limits assumed): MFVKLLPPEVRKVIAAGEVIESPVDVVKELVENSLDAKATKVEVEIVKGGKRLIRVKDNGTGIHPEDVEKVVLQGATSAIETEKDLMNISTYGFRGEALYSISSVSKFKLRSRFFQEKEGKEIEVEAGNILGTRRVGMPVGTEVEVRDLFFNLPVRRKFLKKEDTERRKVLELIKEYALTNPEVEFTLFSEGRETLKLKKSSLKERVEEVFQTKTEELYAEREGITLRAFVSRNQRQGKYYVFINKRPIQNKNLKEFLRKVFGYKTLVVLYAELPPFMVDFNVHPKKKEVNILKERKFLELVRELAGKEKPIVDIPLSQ
Nature of the assay: equilibrium dialysis. The format is binding. In general terms: Equilibrium dialysis compares concentrations on both sides of a semipermeable membrane.

In assay [2] the target is T2, aqMutL NTD (Aquifex aeolicus, UniProt O67518).
T2 construct: gene mutL; recombinant from E. coli
T2 sequence (O67518 1-319 limits assumed): T1 sequence (O67518 1-319 K79A limits assumed) with A79K
Description: equilibrium dialysis. In kind it is binding.

Turning to `Nc1ncnc2c1ncn2[C@@H]1O[C@H](COP(=O)(O)OP(=O)(O)NP(=O)(O)O)[C@@H](O)[C@H]1O` [AMPPNP], the dissociation constant (Kd) on aqMutL NTD [1] was determined as 340 µM; at aqMutL NTD [2], 300 µM.

For the origin of these results see article doi:10.1101/2021.07.09.451751v1, “Identification of general acid catalyst for the ATPase activity of Lynch syndrome-related MutL homologs” (biorxiv, 2021).
